In publication PMC4949444 (Scientific Reports, 2016):

Tested on: 3NP-lesioned C57BL/6 mice
Test: 3-nitropropionic acid (3NP) model of Huntington's disease
Assay type: in vivo
Details: for COX-2 (2expΔΔct) / IL-6 (2expΔΔct) / TNF-α (2expΔΔct): striatum mRNA; for % GSH / % SOD activity / %Catalase activity: striatum
Method: Figure 7 VCE-003.2 is neuroprotective in 3NP-intoxicated mice. (a) Behavioural score was determined 12 hours after 3NP intoxication. Mice were treated with VCE-003.2 (20 mg/Kg) alone or combined with T0070907 (5 mg/kg) as indicated. Animals were also treated separately with either VCE-003.2 or T0070907 alone. Hind limb clasping, general locomotor activity, hind limb dystonia and kyphosis were rated from 0 to 2 based on severity (score 0 indicates normal function and 2 indicates the most severe affected function). Values are expressed as means ± SEM (n = 6). (b) Representative images of Nissl staining performed on coronal striatal brain sections from the same mice groups. Photomicrographs of NeuN (Bar size, 50 μm) Iba-1 and glial fibrillary acidic protein (GFAP) immunostained sections through the different group of mice are also shown. (c) Quantification of the different markers was performed with Image J software. Total average number of neurons (NeuN^+), microglia (Iba1^+) and astrocytes (GFAP^+) is shown. Values are expressed as means ± SEM (n = 6). *p < 0.05, **p < 0.01, ***p < 0.001 vs. Vehicle; ^#p < 0.05, ^##p < 0.01, ^###p < 0.001 vs. 3NP; †p < 0.05, ^††p < 0.01, ^†††p < 0.001 vs. the 3NP + VCE-003.2 group.
Mice were housed under standard conditions (12-h light/dark cycle) in groups with access to food and water ad libitum. All experiments were performed in accordance with European Union guideline and approved by the Animal Research Ethic Committee of Córdoba University (2014PI/017) (3NP model) and by the Animal Research Ethic Committee of Complutense University (CEA-UCM 73/2012) (QA model). Procedures were designed to minimize the number of animals used and their suffering. Excitotoxicity was induced by intrastriatal quinolinic acid (QA) administration (100 nmol in 1 μL PBS solution, unilaterally) as previously described[41] at the following coordinates: +0.6 posterior to bregma, +1.85 medio-lateral and -2.7 dorso-ventral to dura, in 12-week-old CD1 male mice (Harlan Ibérica, Barcelona, Spain). Pharmacological manipulation with VCE-003.2 (10 mg/kg body weight) was performed i.p. daily in 2% Tween 20 and 3% DMSO in saline buffer until sacrifice. Control animals received the corresponding vehicle injections. Motor function was assessed by RotaRod analysis conducted with acceleration from 4 to 40 rpm over a period of 570 s in an LE8200 device (Harvard Apparatus, Barcelona, Spain). […] 3NP-treated animals and their respective non-lesioned controls (injected with PBS) were used for pharmacological studies with VCE-003.2. Treatments consisted of 4 i.p. injections every 24 h with 20 mg/kg VCE-003.2 or vehicle (4% DMSO plus 6,2% Tween 20 in saline buffer), with the first and the last injections 30 min before the first and the last injections of 3NP, respectively. In some experiments, mice received a combination of VCE-003.2 and the PPARγ antagonist T0070907 (5 mg/kg) injected 15 minutes before VCE-003.2. In 3NP-lesioned mice, motor activity, hindlimb clasping, dystonia, and truncal dystonia were evaluated following previously described procedures. All behavioural tests were conducted prior to drug injections to avoid acute effects of the compounds under investigation and all animals were euthanized 12 h after the last injection of 3NP and their brains removed. The right hemispheres were used to dissect the striatum which was frozen in RNAlater (Sigma-Aldrich) and stored at −80 °C for biochemical analyses. The left hemispheres were fixed in fresh 4% paraformaldehyde (in 0.1 M PBS) for 48 h at 4 °C and embedded in paraffin wax for staining and immunohistochemical analysis. In all experiments, at least 6 animals were used per experimental group.
Free floating coronal brain slices ([…]) were processed as previously described. […]

[1] = 3NP-lesioned mice, + T0070907 5 mg/kg
[2] = 3NP-treated mice, VCE-003.2 20 mg/kg
[3] = 3NP-treated mice, VCE-003.2 20 mg/kg + T0070907 5 mg/kg
[4] = substance alone, mean ± SEM n=6
[5] = 3NP-treated mice, VCE-003.2 20 mg/kg, % of vehicle control
[6] = substance alone, % of vehicle-treated control

CCCCCC1=C(NCC)C(=O)C(C/C=C(\C)CCC=C(C)C)=C(O)C1=O [VCE-003.2]
loss of Nissl and NeuN+ cells in striatum (3NP-lesioned mice, 20 mg/kg): rescued the loss of Nissl and NeuN^+-cells
microgliosis and astrogliosis (Iba1, GFAP) (3NP-lesioned mice, 20 mg/kg): reduced 3NP-induced microgliosis and astrogliosis
motor deficits: hindlimb clasping, dystonia, kyphosis (3NP-lesioned mice, 20 mg/kg i.p.): improved the motor deficits of 3NP-lesioned mice by reducing hindlimb clasping, dystonia and kyphosis
effect on motor deficits with PPARγ antagonist co-administered [1]: abrogated
neuroprotective activity (Nissl, NeuN) with T0070907 co-administered [1]: prevented the activity of VCE-003.2
behavioural score, substance alone (mice given the substance alone): Neither VCE-003.2 nor T0070907 alone influenced the behavior of the animals
COX-2 (2expΔΔct) [2]: 2.7 ± 0.07^### 2expΔΔct
IL-6 (2expΔΔct) [2]: 1.79 ± 0.2^### 2expΔΔct
TNF-α (2expΔΔct) [2]: 1.56 ± 0.576^## 2expΔΔct
COX-2 (2expΔΔct) [3]: 8.91 ± 1^† 2expΔΔct
IL-6 (2expΔΔct) [3]: 8.18 ± 2.9 2expΔΔct
TNF-α (2expΔΔct) [3]: 3.83 ± 1.17 2expΔΔct
COX-2 (2expΔΔct) [4]: 1.31 ± 0.75 2expΔΔct
IL-6 (2expΔΔct) [4]: 1.14 ± 0.65 2expΔΔct
TNF-α (2expΔΔct) [4]: 1.15 ± 058 2expΔΔct
% GSH [3]: 121.48 ± 15.29%
% SOD activity [3]: 121.46 ± 37.04%
%Catalase activity [3]: 89.08 ± 5.7%
% GSH [5]: 111.7 ± 12.6%
% SOD activity [5]: 221.18 ± 26.91^# %
%Catalase activity [5]: 88.82 ± 6.75^# %
% GSH [6]: 101.81 ± 14.59%
% SOD activity [6]: 115.62 ± 27.34%
%Catalase activity [6]: 99.05 ± 6.1%
